Values after ≈ are worked out from the molar mass of the structure shown. *1 amine or outer side, *2 acyl side, *3 side chain or, on linkers, in order; H or OH if unused. Where a SMILES comes first, the peptide text is derived from it. [ ]: non-standard residue; d: D form. The star is where a group is joined. X1 = CCCC(N[*:1])C(=O)C(=O)[*:2]; Chg = N[C@H](C(=O)O)C1CCCCC1; Phg = N[C@H](C(=O)O)c1ccccc1; Boc = CC(C)(C)OC(=O)*
Tests used:
Staphylococcus aureus [1] = assay: Antibacterial activity against Staphylococcus aureus; type: functional
Thermus thermophilus = assay: Antibacterial activity against Thermus thermophilus; type: functional, organism-based
Staphylococcus aureus [2] = assay: In vivo antibacterial activity against Staphylococcus aureus infected mouse model assessed as curative dose; type: functional
Staphylococcus aureus [3] = assay: In vivo antibacterial activity against erythromycin-resistant Staphylococcus aureus infected mouse model assessed as curative dose; type: functional
Staphylococcus aureus [4] = assay: In vivo antibacterial activity against streptomycin-resistant Staphylococcus aureus infected mouse model assessed as curative dose; type: functional
[5] = tested on: Staphylococcus epidermidis; assay: microbe, parasite or virus in culture
Description: Antibacterial activity against Staphylococcus epidermidis

[6] = tested on: Staphylococcus saprophyticus; assay: microbe, parasite or virus in culture
Description: Antibacterial activity against Staphylococcus saprophyticus

Staphylococcus aureus [7] = assay: microbe, parasite or virus in culture
Description: Antibacterial activity against Methicillin-resistant staphylococcus aureus

MDA-MB-231 = assay: Antiproliferative activity against human MDA-MB-231 cells assessed as reduction in cell viability incubated for 72 hrs by MTT assay; type: functional, cell-based; settings: MDA-MB-231, 72 h
BT-549 = assay: Cytotoxicity against human BT-549 cells assessed as inhibition of cell growth incubated for 72 hrs by MTT assay; type: functional, cell-based; settings: BT-549, 72 h
[8] = Inhibition of 20s constitutive proteasome beta-5c (unknown origin); parameters: species or system Homo sapiens
SK-N-FI = assay: Antiproliferative activity against human SK-N-FI cells; type: functional, cell-based
[9] = Inhibition of PK1 (unknown origin); parameters: species or system Homo sapiens
J82 = assay: Antiproliferative activity against human J82 cells; type: functional, cell-based
SCaBER = assay: Antiproliferative activity against human SCaBER cells; type: functional, cell-based
Streptococcus pneumoniae = assay: Antibacterial activity against Streptococcus pneumoniae ATCC 49619 assessed as inhibition of bacterial growth incubated for 24 hrs by CLSI protocol based broth micro-dilution method; type: functional
Escherichia coli = assay: Antibacterial activity against Escherichia coli assessed as reduction in bacterial growth by broth microdilution method; type: functional
Staphylococcus aureus [10] = assay: Antibacterial activity against Staphylococcus aureus ATCC 25923 assessed as bacterial growth inhibition measured after 18 hrs by CLSI protocol based two-fold serial microdilution method; type: functional
Pseudomonas aeruginosa = assay: Antibacterial activity against Pseudomonas aeruginosa ATCC 15442 assessed as reduction in bacterial cell growth incubated for 18 hrs by two fold serial microdilution method; type: functional
NS3 protease [11] = target: T1, NS3 protease (Hepacivirus C, UniProt C1KIQ2); assay: Inhibition of Hepatitis C virus genotype 1b NS3 protease; parameters: species or system Hepacivirus hominis
NS3 protease [12] = target: T1, NS3 protease; assay: Binding affinity to Hepatitis C virus genotype 1b NS3 protease assessed as inhibition constant; parameters: species or system Hepacivirus hominis
NS3 protease [13] = target: T1, NS3 protease; assay: Binding affinity to Hepatitis C virus genotype 1a NS3 protease assessed as inhibition constant; parameters: species or system Hepacivirus hominis
NS3 protease [14] = target: T1, NS3 protease; assay: Binding affinity to HCV NS3 protease assessed as inhibition constant; parameters: species or system Hepacivirus hominis
Hepatitis C virus = assay: Antiviral activity against Hepatitis C virus infected in human Huh7.5 cells assessed as reduction in viral replication; type: functional, Hepacivirus hominis
HPAC = assay: Antiproliferative activity against human HPAC cells assessed as inhibition of cell growth measured after 72 hrs by MTT assay; type: functional, cell-based
Capan-2 = assay: Antiproliferative activity against human Capan-2 cells assessed as reduction in cell viability incubated for 72 hrs by MTT assay; type: functional, cell-based; settings: Capan-2, 72 h
[15] = Inhibition of PDGFR (unknown origin); parameters: species or system Homo sapiens
[16] = target: Fibroblast growth factor receptor 3 (Homo sapiens, UniProt P22607); assay: Inhibition of FGFR3 (unknown origin)
[17] = target: Vascular endothelial growth factor receptor 3 (Homo sapiens, UniProt P35916); assay: Inhibition of VEGFR3 (unknown origin)
[18] = target: Fibroblast growth factor receptor 4 (Homo sapiens, UniProt P22455); assay: Inhibition of FGFR4 (unknown origin)
[19] = target: Fibroblast growth factor receptor 1 (Homo sapiens, UniProt P11362); assay: Inhibition of FGFR1 (unknown origin)
[20] = target: Vascular endothelial growth factor receptor 1 (Homo sapiens, UniProt P17948); assay: Inhibition of VEGFR1 (unknown origin)
MCF7 = assay: Antiproliferative activity against human MCF7 cells assessed as reduction in cell viability incubated for 48 hrs by MTT assay; type: functional, cell-based; settings: MCF7, 48 h
[21] = Half life in Wistar rat at 10 mg/kg, iv measured for 24 hrs by LC-MS/MS analysis; type: ADME, organism-based; settings: in vivo
[22] = Volume of distribution at steady state in Wistar rat at 10 mg/kg, iv measured for 24 hrs by LC-MS/MS analysis; type: ADME, organism-based; settings: in vivo
SK-BR-3 = assay: Antiproliferative activity against human SK-BR-3 cells; type: functional, cell-based
[23] = target: Human immunodeficiency virus type 1 reverse transcriptase (Human immunodeficiency virus 1, UniProt Q72547); assay: Inhibition of HIV-1 reverse transcriptase
[24] = Inhibition of LPS-induced NFkappaB activation in mouse RAW264.7 cells assessed as inhibition of IKKalpha phosphorylation level incubated for 1 hrs by Western blot analysis; type: cell-based; settings: RAW264.7, 1 h
Tubulin = assay: Inhibition of tubulin polymerization (unknown origin); type: protein-complex assay, Homo sapiens

T1 sequence (C1KIQ2 whole entry): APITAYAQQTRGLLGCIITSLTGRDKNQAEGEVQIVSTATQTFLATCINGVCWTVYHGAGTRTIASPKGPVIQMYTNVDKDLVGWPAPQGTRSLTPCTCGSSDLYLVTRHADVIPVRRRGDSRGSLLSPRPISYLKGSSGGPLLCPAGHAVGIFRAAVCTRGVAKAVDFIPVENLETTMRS
Sequence of Vascular endothelial growth factor receptor 3 (P35916 whole entry): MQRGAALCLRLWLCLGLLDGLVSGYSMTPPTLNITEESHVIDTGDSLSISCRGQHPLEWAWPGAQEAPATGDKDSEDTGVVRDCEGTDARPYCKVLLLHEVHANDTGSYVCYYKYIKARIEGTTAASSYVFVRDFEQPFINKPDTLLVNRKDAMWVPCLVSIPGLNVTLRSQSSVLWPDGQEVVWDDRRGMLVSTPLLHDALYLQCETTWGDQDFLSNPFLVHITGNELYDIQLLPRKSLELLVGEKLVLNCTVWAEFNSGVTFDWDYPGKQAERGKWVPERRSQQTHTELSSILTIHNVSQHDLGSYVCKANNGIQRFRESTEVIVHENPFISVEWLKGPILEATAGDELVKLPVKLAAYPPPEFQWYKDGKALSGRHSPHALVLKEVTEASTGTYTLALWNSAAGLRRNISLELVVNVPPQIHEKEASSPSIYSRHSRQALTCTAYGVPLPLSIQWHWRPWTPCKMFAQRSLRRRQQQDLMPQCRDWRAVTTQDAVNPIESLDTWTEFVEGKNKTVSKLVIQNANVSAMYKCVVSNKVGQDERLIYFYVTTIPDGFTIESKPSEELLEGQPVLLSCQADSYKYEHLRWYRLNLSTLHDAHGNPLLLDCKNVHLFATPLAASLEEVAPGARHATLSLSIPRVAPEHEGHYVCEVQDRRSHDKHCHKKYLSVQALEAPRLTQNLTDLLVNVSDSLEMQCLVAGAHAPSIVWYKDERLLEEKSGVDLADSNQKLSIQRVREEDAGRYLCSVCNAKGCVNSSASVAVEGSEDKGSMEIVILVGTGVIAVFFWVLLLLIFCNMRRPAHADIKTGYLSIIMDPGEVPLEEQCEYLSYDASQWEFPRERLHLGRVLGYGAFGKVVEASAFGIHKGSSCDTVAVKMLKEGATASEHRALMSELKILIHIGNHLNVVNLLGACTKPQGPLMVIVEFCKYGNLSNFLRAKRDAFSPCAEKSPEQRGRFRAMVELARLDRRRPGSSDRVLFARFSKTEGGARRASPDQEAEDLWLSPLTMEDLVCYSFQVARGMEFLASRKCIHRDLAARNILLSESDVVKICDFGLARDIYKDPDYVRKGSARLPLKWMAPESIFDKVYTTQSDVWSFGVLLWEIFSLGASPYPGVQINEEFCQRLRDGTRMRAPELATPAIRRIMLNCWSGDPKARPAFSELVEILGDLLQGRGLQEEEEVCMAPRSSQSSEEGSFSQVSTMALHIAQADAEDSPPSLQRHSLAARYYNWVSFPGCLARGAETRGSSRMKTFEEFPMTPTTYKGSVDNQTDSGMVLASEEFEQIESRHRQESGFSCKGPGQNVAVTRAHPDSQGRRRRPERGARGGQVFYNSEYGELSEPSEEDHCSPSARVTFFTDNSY
Sequence of Vascular endothelial growth factor receptor 1 (P17948 whole entry): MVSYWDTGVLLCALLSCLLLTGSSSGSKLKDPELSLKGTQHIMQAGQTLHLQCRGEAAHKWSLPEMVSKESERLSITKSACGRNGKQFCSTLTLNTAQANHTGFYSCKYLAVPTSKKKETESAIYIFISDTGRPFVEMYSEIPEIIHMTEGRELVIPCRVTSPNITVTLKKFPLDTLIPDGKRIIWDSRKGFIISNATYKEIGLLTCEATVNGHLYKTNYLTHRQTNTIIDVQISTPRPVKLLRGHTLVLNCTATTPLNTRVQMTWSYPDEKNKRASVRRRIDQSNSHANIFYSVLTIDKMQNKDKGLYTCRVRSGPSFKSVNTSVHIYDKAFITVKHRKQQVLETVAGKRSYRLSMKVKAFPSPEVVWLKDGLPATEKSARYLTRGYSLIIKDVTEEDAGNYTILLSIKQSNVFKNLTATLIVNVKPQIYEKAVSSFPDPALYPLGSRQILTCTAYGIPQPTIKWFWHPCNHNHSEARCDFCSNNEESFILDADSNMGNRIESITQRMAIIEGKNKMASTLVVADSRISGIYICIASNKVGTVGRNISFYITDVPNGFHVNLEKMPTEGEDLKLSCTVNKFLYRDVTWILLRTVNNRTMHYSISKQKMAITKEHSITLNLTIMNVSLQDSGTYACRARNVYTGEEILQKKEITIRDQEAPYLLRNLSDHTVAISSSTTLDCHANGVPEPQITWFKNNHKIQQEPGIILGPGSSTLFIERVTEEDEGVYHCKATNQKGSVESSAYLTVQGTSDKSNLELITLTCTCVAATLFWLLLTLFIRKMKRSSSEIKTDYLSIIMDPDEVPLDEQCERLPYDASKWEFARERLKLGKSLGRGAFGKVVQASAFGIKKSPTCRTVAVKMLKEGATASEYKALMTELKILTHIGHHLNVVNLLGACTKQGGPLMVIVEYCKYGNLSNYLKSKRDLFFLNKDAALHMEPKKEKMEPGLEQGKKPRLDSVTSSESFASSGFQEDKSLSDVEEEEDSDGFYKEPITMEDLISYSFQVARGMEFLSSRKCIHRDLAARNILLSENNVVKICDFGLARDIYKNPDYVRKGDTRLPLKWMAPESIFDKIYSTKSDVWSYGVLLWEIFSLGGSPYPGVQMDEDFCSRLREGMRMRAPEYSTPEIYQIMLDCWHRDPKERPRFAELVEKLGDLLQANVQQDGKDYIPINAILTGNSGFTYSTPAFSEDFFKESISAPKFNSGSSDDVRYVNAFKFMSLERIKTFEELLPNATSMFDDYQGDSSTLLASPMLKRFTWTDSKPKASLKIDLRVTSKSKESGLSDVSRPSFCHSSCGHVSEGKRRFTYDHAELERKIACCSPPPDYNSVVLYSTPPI
Sequence of Fibroblast growth factor receptor 3 (P22607 whole entry): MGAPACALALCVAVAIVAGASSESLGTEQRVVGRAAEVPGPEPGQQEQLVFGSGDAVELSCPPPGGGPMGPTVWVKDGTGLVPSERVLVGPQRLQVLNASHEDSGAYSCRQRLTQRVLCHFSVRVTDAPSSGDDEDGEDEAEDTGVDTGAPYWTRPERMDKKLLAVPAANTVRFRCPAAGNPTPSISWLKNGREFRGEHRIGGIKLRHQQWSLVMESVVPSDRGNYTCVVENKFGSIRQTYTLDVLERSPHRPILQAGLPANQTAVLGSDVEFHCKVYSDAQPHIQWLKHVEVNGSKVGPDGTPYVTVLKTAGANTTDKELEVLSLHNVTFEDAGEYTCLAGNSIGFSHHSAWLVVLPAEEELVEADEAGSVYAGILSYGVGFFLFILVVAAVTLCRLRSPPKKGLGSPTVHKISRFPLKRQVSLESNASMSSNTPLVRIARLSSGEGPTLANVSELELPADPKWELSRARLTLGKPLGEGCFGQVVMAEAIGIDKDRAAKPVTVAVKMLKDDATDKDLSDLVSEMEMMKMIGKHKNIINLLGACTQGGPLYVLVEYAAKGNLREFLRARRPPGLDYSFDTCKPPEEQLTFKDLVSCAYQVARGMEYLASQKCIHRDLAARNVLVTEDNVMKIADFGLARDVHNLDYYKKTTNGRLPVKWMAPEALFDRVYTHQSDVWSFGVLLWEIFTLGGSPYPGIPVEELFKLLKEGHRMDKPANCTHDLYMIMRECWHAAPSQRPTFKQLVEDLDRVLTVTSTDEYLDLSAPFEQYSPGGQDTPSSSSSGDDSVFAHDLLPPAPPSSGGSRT
Sequence of Fibroblast growth factor receptor 4 (P22455 whole entry): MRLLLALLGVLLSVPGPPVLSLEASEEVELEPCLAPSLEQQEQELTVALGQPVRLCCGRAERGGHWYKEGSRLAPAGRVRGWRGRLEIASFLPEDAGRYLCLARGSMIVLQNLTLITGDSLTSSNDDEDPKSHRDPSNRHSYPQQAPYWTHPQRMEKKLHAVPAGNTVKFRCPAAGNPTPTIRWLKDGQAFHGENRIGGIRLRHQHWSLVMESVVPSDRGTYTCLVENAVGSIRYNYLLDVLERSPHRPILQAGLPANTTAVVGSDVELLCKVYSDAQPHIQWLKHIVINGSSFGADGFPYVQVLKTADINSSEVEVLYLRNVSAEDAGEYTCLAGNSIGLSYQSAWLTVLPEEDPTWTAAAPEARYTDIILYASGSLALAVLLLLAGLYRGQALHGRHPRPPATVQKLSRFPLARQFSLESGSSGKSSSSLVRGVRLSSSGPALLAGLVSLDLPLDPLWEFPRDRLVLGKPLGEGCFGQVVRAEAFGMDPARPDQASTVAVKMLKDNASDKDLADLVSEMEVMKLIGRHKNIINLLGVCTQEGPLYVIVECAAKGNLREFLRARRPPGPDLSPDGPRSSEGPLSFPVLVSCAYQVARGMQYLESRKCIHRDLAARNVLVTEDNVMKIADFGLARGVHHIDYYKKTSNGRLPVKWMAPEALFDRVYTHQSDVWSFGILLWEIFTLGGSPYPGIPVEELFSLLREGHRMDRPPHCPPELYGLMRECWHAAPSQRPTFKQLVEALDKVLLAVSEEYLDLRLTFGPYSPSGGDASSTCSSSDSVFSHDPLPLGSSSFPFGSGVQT

C/C(=C\C(=O)OCCCCCCCCC(=O)O)C[C@@H]1OC[C@H](C[C@@H]2O[C@H]2[C@@H](C)[C@H](C)O)[C@@H](O)[C@H]1O [MUPIROCIN]
MIC (Staphylococcus aureus [1]): 0.1 µg/mL (≈ 0.2 µM)
IC50 (Thermus thermophilus): 900 nM

CC(C)[C@H](N)C(=O)N[C@H](C(=O)O)[C@@H]1C[C@H](NC(=N)N)[C@@H]2CN21 (some centres not stated)
CD50 (Staphylococcus aureus [2]): 7.6 mg/kg
CD50 (Staphylococcus aureus [3]): 11 mg/kg
CD50 (Staphylococcus aureus [4]): 10 mg/kg

O=C(O)c1cn(C2CC2)c2cc(N3CCNCC3)c(F)cc2c1=O [CIPROFLOXACIN]
MIC [5]: < 1 µg/mL
MIC [6]: < 1 µg/mL
MIC (Staphylococcus aureus [7]): 0.12 µg/mL (≈ 0.362 µM)

COC[C@H](NC(=O)c1cnc(C)s1)C(=O)N[C@@H](COC)C(=O)N[C@@H](Cc1ccccc1)C(=O)[C@@]1(C)CO1 [OPROZOMIB]
IC50 (MDA-MB-231): 79 nM
IC50 (BT-549): 50 nM
IC50 [8]: 36 nM

C/C(=C\c1csc(C)n1)[C@@H]1C[C@@H]2O[C@]2(C)CCC[C@H](C)[C@H](O)[C@@H](C)C(=O)C(C)(C)[C@@H](O)CC(=O)N1 [IXABEPILONE]
IC50 (SK-N-FI): 10 nM

CO[C@@]12[C@H](COC(N)=O)C3=C(C(=O)C(C)=C(N)C3=O)N1C[C@@H]1N[C@@H]12 [MITOMYCIN]
IC50 [9]: 287 nM
IC50 (J82): 300 nM
IC50 (SCaBER): 1500 nM

CCn1cc(C(=O)O)c(=O)c2cc(F)c(N3CCNCC3)cc21 [NORFLOXACIN]
MIC (Streptococcus pneumoniae): ≤ 0.06 µg/mL
MIC (Escherichia coli): ≤ 0.06 µg/mL
MIC (Staphylococcus aureus [10]): ≤ 0.06 µg/mL
MIC (Pseudomonas aeruginosa): ≤ 0.06 µg/mL

COc1ccc2c(O[C@@H]3C[C@H]4C(=O)N[C@]5(C(=O)O)C[C@H]5/C=C/CCCCC[C@H](NC(=O)OC5CCCC5)C(=O)N4C3)cc(-c3csc(NC(C)C)n3)cc2c1
IC50 (NS3 protease [11]): 3 nM
Ki (NS3 protease [12]): 3 nM
Ki (NS3 protease [13]): 0.3 nM

COc1ccc2c(O[C@@H]3C[C@H]4C(=O)N[C@]5(C(=O)NS(=O)(=O)C6CC6)C[C@H]5/C=C\CCCCN(C)C(=O)[C@@H]4C3)cc(-c3nc(C(C)C)cs3)nc2c1C
IC50 (NS3 protease [11]): 8 nM
Ki (NS3 protease [12]): 0.4 nM
Ki (NS3 protease [13]): 0.5 nM

CCCC(NC(=O)[C@H](CC(C)C)NC(=O)[C@@H](NC(=O)OC(C)(C)C)C1CCCCC1)C(=O)C(=O)NCC(=O)N[C@H](C(N)=O)c1ccccc1 (some centres not stated) (Boc-[Chg]L[X1]G[Phg]-NH2)
Ki (NS3 protease [14]): 66 nM
EC90 (Hepatitis C virus): 200 nM

CCn1c(-c2cc(N3CCN(C)CC3)cnc2[C@H](C)OC)c2c3cc(ccc31)-c1csc(n1)C[C@H](NC(=O)[C@H]1C[C@@H]1C)C(=O)N1CCC[C@H](N1)C(=O)OCC(C)(C)C2
IC50 (HPAC): 1.2 nM
IC50 (Capan-2): 1.4 nM

COc1cc2nccc(Oc3ccc(NC(=O)NC4CC4)c(Cl)c3)c2cc1C(N)=O [LENVATINIB]
IC50 [15]: 29 nM
IC50 [16]: 27 nM
IC50 [17]: 2 nM
IC50 [18]: 27 nM
IC50 [19]: 27 nM
IC50 [20]: 2 nM

C[C@]12C[C@H]3S[C@H]3C[C@@H]1CC[C@@H]1[C@@H]2CC[C@]2(C)[C@@H](O)CC[C@@H]12 [EPITIOSTANOL]
IC50 (MCF7): 30 nM

CC[C@@H]1C(=O)N(C)c2cnc(Nc3ccc(C(=O)N[C@H]4CC[C@H](N5CCN(CC6CC6)CC5)CC4)cc3OC)nc2N1C(C)C [VOLASERTIB]
half-life [21]: > 110 h
Vd [22]: > 4000 L

COc1cc2cc(c1Cl)N(C)C(=O)C[C@H](OC(=O)[C@@H](C)N(C)C(=O)CCS)[C@]1(C)O[C@H]1[C@H](C)[C@@H]1C[C@@](O)(NC(=O)O1)[C@H](OC)/C=C/C=C(\C)C2
IC50 (SK-BR-3): 1.1 nM

CCN1c2ncccc2C(=O)Nc2c(C)ccnc21
Ki (NS3 protease [14]): 10 nM
IC50 [23]: 30 nM

CC1=C(CO)C(=O)O[C@@H]([C@@H](C)[C@H]2CC[C@H]3[C@@H]4C[C@H]5O[C@]56[C@@H](O)C=CC(=O)[C@]6(C)[C@H]4CC[C@]23C)C1 [WITHAFERIN A]
IC50 [24]: 250 nM

CC[C@@H]1C(=O)N(C)c2cnc(Nc3ccc(C(=O)NC4CCN(C)CC4)cc3OC)nc2N1C1CCCC1 [BI-2536]
half-life [21]: < 50 h
Vd [22]: 750 L

C/C(=C\c1csc(C)n1)[C@@H]1C[C@@H]2O[C@]2(C)CCC[C@H](C)[C@H](O)[C@@H](C)C(=O)C(C)(C)[C@@H](O)CC(=O)O1 [PATUPILONE]
IC50 (SK-N-FI): 10 nM
IC50 (Tubulin): 1.8 nM

C/C1=C/C[C@@H](/C(C)=C/c2csc(C)n2)OC(=O)C[C@H](O)C(C)(C)C(=O)[C@H](C)[C@@H](O)[C@@H](C)CCC1 [EPOTHILONE D]
IC50 (SK-N-FI): 46 nM

CC(C)C[C@H](NC(=O)[C@H](CCc1ccccc1)NC(=O)CN1CCOCC1)C(=O)N[C@@H](Cc1ccccc1)C(=O)N[C@@H](CC(C)C)C(=O)[C@@]1(C)CO1 [CARFILZOMIB]
IC50 (MDA-MB-231): 22.4 nM
IC50 (BT-549): 10.8 nM
IC50 [8]: 6 nM

CC(C)(C)NC(=O)N[C@H](C(=O)N1C[C@H]2[C@@H]([C@H]1C(=O)NC(CC1CCC1)C(=O)C(N)=O)C2(C)C)C(C)(C)C (some centres not stated) [BOCEPREVIR]
Ki (NS3 protease [14]): 14 nM
EC90 (Hepatitis C virus): 350 nM

Reference: ChEMBL document CHEMBL6103541, “Ringing medicinal chemistry: The importance of 3-membered rings in drug discovery” (Bioorg Med Chem, 2024)
